Measured values: patent publication EP0174162A2, “Pharmaceutically active dipeptide derivatives” (THE WELLCOME FOUNDATION LIMITED, priority 1984, dated 1986)

Key:
[1] = biological target: isolated enzyme (Homo sapiens, UniProt P12821); test: ACE inhibition on isolated enzyme; type: biochemical; conditions: read-out: apparent IC50 on isolated enzyme
[2] = test system: isoprenaline induced tachycardia; test: Effect on heart rate: isoprenaline induced tachycardia in pithed rats; type: in vivo; conditions: doses 10-100 µgkg^-1min^-1 displaced isoprenaline dose response curves rightwards
Method: Doses 10-100 µgkg^-1min^-1 effectively displaced in a rightwards fashion, isoprenaline dose response curves.

[3] = test system: uninephrectomised, contralateral renal stenotic conscious beagle dogs; test: Antihypertensive activity in uninephrectomised, contralateral renal stenotic conscious beagle dogs; type: in vivo; conditions: doses in the range 1-3 mgkg^-1 intravenously
[4] = biological target: T1, ACE (Rattus norvegicus, UniProt P47820); test: ACE inhibition in vivo: angiotensin I induced pressor responses in pithed rats; conditions: doses 1-100 µgkg^-1min displaced angiotensin I dose response curves rightwards
T1 construct: in pithed rats; from tissue; host or cells: whole animal (pithed rat)
T1 sequence (P47820 36-1313): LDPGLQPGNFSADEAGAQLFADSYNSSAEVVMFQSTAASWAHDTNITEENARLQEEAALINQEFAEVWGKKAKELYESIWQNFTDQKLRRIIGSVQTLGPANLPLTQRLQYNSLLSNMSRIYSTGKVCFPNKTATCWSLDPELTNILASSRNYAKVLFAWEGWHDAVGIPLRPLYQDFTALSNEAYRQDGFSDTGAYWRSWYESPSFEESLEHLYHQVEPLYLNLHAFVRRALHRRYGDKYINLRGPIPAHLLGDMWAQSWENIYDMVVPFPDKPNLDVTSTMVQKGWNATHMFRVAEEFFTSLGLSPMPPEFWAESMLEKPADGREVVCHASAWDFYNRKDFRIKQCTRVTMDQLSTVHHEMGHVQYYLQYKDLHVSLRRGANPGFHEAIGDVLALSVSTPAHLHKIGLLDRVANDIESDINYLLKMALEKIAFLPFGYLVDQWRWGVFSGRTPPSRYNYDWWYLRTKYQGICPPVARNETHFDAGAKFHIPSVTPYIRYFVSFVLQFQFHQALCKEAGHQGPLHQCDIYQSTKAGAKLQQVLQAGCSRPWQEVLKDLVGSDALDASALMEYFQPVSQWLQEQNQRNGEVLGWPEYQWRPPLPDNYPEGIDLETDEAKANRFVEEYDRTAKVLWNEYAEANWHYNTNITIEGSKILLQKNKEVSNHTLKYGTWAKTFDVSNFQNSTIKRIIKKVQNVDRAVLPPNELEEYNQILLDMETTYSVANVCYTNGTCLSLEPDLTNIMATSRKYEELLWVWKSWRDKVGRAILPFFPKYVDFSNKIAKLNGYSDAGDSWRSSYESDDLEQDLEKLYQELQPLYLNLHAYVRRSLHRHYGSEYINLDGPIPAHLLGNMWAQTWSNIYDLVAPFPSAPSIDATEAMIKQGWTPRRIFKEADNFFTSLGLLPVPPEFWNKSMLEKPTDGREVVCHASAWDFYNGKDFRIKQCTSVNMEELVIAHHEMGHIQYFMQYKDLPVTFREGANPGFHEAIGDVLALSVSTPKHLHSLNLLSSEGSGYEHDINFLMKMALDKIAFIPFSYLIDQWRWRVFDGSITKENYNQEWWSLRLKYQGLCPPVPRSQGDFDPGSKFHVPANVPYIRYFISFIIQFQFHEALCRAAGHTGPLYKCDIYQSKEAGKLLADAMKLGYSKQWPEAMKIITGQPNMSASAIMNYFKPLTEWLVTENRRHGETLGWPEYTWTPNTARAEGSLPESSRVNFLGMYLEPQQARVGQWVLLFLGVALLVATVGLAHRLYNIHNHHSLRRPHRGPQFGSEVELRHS
Method: Doses 1-100 µgkg^-1min effectively displaced in a rightwards fashion, angiotensin I dose response curves.

[5] = test system: salt depleted conscious beagle dogs; test: Antihypertensive activity in salt depleted conscious beagle dogs; type: in vivo; conditions: intravenous administration, doses in the range 1-3 mgkg^-1

Chain of isolated enzyme (P12821 30-1306): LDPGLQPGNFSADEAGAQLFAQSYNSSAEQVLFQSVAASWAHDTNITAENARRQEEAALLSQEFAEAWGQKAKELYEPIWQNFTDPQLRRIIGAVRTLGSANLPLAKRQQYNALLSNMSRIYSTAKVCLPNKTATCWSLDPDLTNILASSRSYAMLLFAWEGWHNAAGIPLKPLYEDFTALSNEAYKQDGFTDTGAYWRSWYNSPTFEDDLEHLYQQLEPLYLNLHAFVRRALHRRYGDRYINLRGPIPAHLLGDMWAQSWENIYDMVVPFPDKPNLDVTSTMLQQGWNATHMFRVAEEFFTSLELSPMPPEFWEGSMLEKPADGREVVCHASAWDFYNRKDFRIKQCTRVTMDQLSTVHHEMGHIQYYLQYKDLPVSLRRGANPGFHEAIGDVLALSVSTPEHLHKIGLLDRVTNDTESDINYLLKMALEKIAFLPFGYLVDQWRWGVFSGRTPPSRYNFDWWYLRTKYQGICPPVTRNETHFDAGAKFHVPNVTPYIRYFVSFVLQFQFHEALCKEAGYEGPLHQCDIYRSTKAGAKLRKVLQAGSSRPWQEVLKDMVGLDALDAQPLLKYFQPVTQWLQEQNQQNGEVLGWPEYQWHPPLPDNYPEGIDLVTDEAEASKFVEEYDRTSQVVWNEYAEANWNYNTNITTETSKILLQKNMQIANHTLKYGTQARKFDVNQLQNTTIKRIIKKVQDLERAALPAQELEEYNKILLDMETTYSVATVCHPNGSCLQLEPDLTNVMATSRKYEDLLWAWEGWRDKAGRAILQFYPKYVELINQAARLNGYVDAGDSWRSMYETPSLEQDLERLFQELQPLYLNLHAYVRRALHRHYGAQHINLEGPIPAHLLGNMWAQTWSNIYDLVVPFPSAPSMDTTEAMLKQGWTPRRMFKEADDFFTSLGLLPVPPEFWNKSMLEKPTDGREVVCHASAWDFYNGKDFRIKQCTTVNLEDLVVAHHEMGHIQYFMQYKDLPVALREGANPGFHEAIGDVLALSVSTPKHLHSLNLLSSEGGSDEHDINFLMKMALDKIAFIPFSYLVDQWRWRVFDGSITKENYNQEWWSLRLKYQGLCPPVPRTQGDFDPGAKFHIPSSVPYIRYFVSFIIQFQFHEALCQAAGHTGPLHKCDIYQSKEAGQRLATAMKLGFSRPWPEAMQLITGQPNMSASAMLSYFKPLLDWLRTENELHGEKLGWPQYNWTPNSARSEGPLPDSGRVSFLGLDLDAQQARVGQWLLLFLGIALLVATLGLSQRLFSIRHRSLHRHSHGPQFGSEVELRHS

SMILES: CC(C)NCC(O)COc1cccc2[nH]c(C(=O)NCCCC[C@H](NC(C)C(=O)N3CCC[C@H]3C(=O)O)C(=O)O)cc12 (some centres unmarked) [Example 1]
- IC50 [1]: 11 nM
- inhibition of isoprenaline induced tachycardia [2]: inhibit in a dose dependent fashion
- hypotensive activity [3]: marked hypotensive activity
- inhibition of angiotensin I induced pressor responses [4]: inhibit in a dose dependent fashion
- blood pressure [5]: reduce blood pressure
